Holding throughout (assay): growth of human tumour cells (NCI), 48 h
Assay [1] deals with DMS 114 small cell lung.
Assay [2] deals with XF 498 CNS.
Assay [3] concerns DLD-1 colon.
Assay [4] has as its system RXF-631 renal.
Assay [5] concerns SNB-78 CNS.
Assay [6] relates to M19-MEL melanoma.
For assay [7], the system named is HOP-18 NSCLC.
Assay [8] concerns KM20L2 colon.

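In this assay, cells in 96-well plates receive the compound at five concentrations for 48 hours. Endpoints are linearly interpolated between the surrounding concentrations. TGI is the concentration that stops growth completely.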 Bounds are passed on as bounds.

In PubChem BioAssay (NCI) one finds TGI data, which are given here for 2 compounds.

Consider `CC(=O)Oc1ccc2c(c1)C(=O)c1nc(C)c(C)nc1C2=O`, for which the TGI in assay [1] was above 76.4 µM; in assay [2] it was above 100 µM; in assay [3], above 100 µM; in assay [4] it was above 91.9 µM; in assay [5], above 100 µM; in assay [6], 9.42 µM. The TGI in assay [7] and in assay [8] was above 100 µM each time.
As for `CC(=O)NN1C(=O)C(Cc2ccccc2)c2ccccc21` (stereo unspecified), the TGI in assay [1], in assay [2], in assay [3], in assay [4], in assay [5] and in assay [6] was above 100 µM throughout. The TGI in assay [7] and in assay [8] was above 100 µM each time.
